# Data taken from patent publication US6586413B2, “Methods and compositions for reducing ischemic injury of the heart by administering adenosine receptor agonists and antagonists” (The United States of America as represented by the …, priority 1999, dated 2003).
# Experiments:
# [1] = tested on: ventricular myocytes cultured from chick embryos; assay: Pharmacological preconditioning: 5 min exposure to agent, then 90 min simulated ischemia; format: cell-based; conditions: for preconditioning / cardioprotective effect: agent alone, 5 min exposure before 90 min ischemia; for maximal protection compared with full agonist: partial agonist vs full agonist (CCPA or Cl-IB-MECA); for effect of high concentration of partial agonist on protection by full agonist: with full agonist CCPA or Cl-IB-MECA
# Procedure: FIG. 14 is a graph showing that the partial A1 receptor agonist, 8-butylaminoCPA, mimics the cardioprotective effect of ischemic preconditioning. Ventricular myocytes were cultured from chick embryos 14 days in ovo. The ability of the partial A1 agonist, 8-butylaminoCPA (8-butylamino-N^6-cyclopentyladenosine), to induce preconditioning was determined. In brief, myocytes were exposed to 8-butylaminoCPA at the indicated concentrations for 5 min, incubated for 10 min with agonist-free medium, and then exposed to simulated ischemia for 90 min. The extent of myocyte injury was quantitated at the end of the 90 min period by determinating the percentage of cells killed and the amount of creatine kinase (CK) released (units per milligram of cell protein). Data are means±SE of values from five independent experiments.
# Determination of myocyte injury was made at the end of the ninety-minute hypoxia, at which time myocytes were taken out of the hypoxic incubator and re-exposed to room air (normal % O2). Aliquots of the media were then obtained for creatine kinase (CK) activity measurement, which is followed by quantitation of the number of viable cells. Measurement of basal level of cell injury was made after parallel incubation of control cells under normal % O2. The extent of hypoxia-induced injury to the ventricular cell was quantitatively determined by the percentages of cells killed and by the amount of CK released into the media according to a previously described method (16, 23). […] In brief, the media were replaced with a trypsin-EDTA buffer to detach the cells, which was then followed by sedimentation of the viable myocytes. Parallel changes in % cells killed and CK released (16, 23) further validated this assay for % cells killed. The amount of CK was measured as enzyme activity (unit/mg), and increases in CK activity above the control level were determined. The percentage of cells killed was calculated as the number of cells obtained from the control group (representing cells not subjected to any hypoxia or drug treatment) minus the number of cells from the treatment group divided by number of cells in control group multiplied by 100%.
# Media were then replaced with fresh media, which was then followed by exposure to 90-minute simulated ischemia and the data graphed.
# [2] = tested on: diacylglycerol level; assay: Diacylglycerol (DAG) accumulation in [3H]myristate-labeled ventricular myocytes; format: cell-based, chick; conditions: 1 μM 8-butylaminoCPA or 10 nM MRS1760 for 5 min
# Procedure: FIGS. 15A and 15B show the coupling of the partial A1 and A3 receptor agonists to stimulation of DAG accumulation and the differential inhibitory effects of the phospholipase C inhibitor U-73122 on the cardioprotection caused by 8-butylaminoCPA or by MRS1760, respectively. FIG. 15A: Ventricular myocytes were labeled with [^3H]myristate (Dupont, 49 Ci/mmol, […]) for 24 hours, exposed to 1 μM of 8-butylaminoCPA or 10 nM MRS1760 for 5 min, and the amount of DAG was determined by thin-layer chromatography. Data are expressed as the percentage increase in the amount of DAG relative to that for unstimulated cells, and are means±SE of values from five independent experiments. FIG. 15B: Effects of U-73122 on cardioprotection induced by 8-butylaminoCPA or by MRS1760 were determined. U-73122 (10 μM) was either included or not during the 5 min exposure of ventricular myocytes to 1 μM 8-butylaminoCPA or 10 nM MRS1760, and cardiac injury was assessed after ischemia as described herein below. […]
# Quantitation of diacylglycerol (DAG) and measurement of phospholipase D (PLD) activity were carried out as previously described (35, 36). The formation of [^3H] phosphotidylethanol (PEt) during agonist exposure in media containing 0.5% (v/v) ethanol was determined by scintillation counting following its separation from other phospholipids on thin layer chromatography as described (36). […]
# [3] = tested on: phospholipase C; assay: Phospholipase C activity in cardiac myocytes; format: cell-based, chick
# Procedure: To further test this notion, the ability of 8-butylaminoCPA to stimulate phospholipase C as measured by […] formation, a downstream signaling molecule that mediates the cardioprotective effect of adenosine A1 receptor was determined.
# [4] = tested on: phospholipase D; assay: Phospholipase D activity ([3H]phosphatidylethanol formation); format: cell-based, chick
# Procedure: Quantitation of diacylglycerol (DAG) and measurement of phospholipase D (PLD) activity were carried out as previously described (35, 36). The formation of [^3H] phosphotidylethanol (PEt) during agonist exposure in media containing 0.5% (v/v) ethanol was determined by scintillation counting following its separation from other phospholipids on thin layer chromatography as described (36). The level of [^3H] PEt represents an index of the PLD activity. The position of DAG or PEt was determined by immersing the thin layer plate in an iodine chamber and their levels were expressed as a percentage of total lipids. Data were expressed as the percentage increase in the amount of DAG or PEt relative to that for unstimulated cells.
PLD activity [4],Structure (SMILES),preconditioning / cardioprotective effect [1],maximal protection compared with full agonist [1],effect of high concentration of partial agonist on protection by full agonist [1],diacylglycerol level [2],PLC activity [3]
,"CCCCNc1nc2c(NC3CCCC3)ncnc2n1[C@@H]1O[C@H](CO)[C@@H](O)[C@H]1O [8-butylaminoCPA, 8-butylamino-N^6-cyclopentyladenosine]",able to induce a marked cardioprotective effect,less than that produced by the full agonist CCPA,able to antagonize the protection caused by the full agonist CCPA,an increase in the diacylglycerol level,able to stimulate PLC activity
able to stimulate PLD activity,"OC[C@@]12C[C@@H]1[C@@H](n1cnc3c(NCc4cccc(I)c4)nc(Cl)nc31)[C@H](O)[C@@H]2O [MRS1760, (1′R,2′R,3′S,4′R,5′S)-4-{2-Chloro-6-[(3-iodophenylmethyl)amino]purin-9-yl}-1-(hydroxymethyl)bicyclo[3.1.0]-hexane-2,3-diol]",able to induce a marked protective effect against ischemia,less than the maximal effect caused by Cl-IB-MECA,blocked the protection induced by the full agonist Cl-IB-MECA,an increase in the diacylglycerol level,
